US9771375B2, “Indazole compounds useful as ketohexokinase inhibitors” (JANSSEN PHARMACEUTICA NV, priority 2010, dated 2017)
Where a name gives a salt, the structure may show the parent alone.

Molecular target: KHK (Homo sapiens (Human), UniProt P50053)
Assay: In Vitro KHK Enzyme Assay (HTMS detection of fructose-1-P)
Assay type: biochemical
Settings: 100 μM ATP, 2 nM KHK, 60 min at 25° C., 12-point dose-response
Description: An enzymatic assay was developed to measure KHK-mediated conversion of D-fructose to Fructose-1-P (F-1-P) using High Throughput Mass Spectroscopy (HTMS) as a means of product detection. This assay served as a primary screen to evaluate the ability to inhibit KHK enzyme activity and it has been adapted to high throughput mass spectrometry (HTMS, BioTrove RapidFire™) format for higher throughput.
The compounds to be tested were dosed in 12-points concentration from 511 μM to 0.5 μM. […] The assay was carried out in 384-well plate format.

KHK, sequence (P50053 whole entry): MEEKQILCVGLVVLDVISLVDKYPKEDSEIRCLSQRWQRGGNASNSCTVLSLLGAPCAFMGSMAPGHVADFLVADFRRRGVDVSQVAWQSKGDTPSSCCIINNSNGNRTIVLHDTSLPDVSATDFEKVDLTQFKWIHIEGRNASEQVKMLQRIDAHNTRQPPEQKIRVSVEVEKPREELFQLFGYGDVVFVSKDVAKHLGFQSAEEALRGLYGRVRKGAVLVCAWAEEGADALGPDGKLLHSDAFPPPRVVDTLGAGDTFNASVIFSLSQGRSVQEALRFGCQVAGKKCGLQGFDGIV

IC50: 3.2 µM
SMILES: Cc1nn(-c2ccccc2)c2cc(N3CCC(N4CCNCC4)CC3)ccc12 [Compound 57, 3-Methyl-1-phenyl-6-(4-piperazin-1-yl-piperidin-1-yl)-1H-indazole hydrochloride]
